# Test results: the supplement of paper PMC6045584
# ± gives the standard deviation of the averaged measurements.
# Assays:
# CARBOPLATIN [1] = compound: T1, O=C(O)C1(C(=O)O)CCC1.[NH2-].[NH2-].[Pt+2] [CARBOPLATIN]; experiment: surviving fraction relative to DMSO-only wells; higher = less growth inhibition; settings: exposure time: 5 days
# Summary of the method: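 In 384-well plates, 250–500 log-phase tumour cells per well were given 24 hours before five days of continuous exposure to inhibitors at 0.5, 1, 5, 10, 50, 100, 500 and 1000 nM. Surviving fraction is luminescence from CellTiter-Glo, normalised to the median of wells containing DMSO alone. Reading took place after 10 minutes at room temperature.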
# CARBOPLATIN [2] = compound: T1, CARBOPLATIN; experiment: area under dose-response curve of surviving fraction (unscaled, Aref=0) (surviving fraction x log10(nM)); higher = more resistant; settings: exposure time: 5 days; dose range 0.5-1000 nM
# Summary of the method: (§1)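 Tumour cell lines in 384-well plates were exposed to eight inhibitor concentrations, from 0.5 to 1000 nM, for five days, and viability was read by CellTiter-Glo luminescence in three screens per line. Signals were normalised to DMSO-only wells, and 3-parameter logistic regression in the drc R package fitted dose-response survival curves to the surviving fractions. Area under the curve is given as the unscaled activity area. That area is taken over log10 dose with Aref = 0.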
# CELECOXIB = compound: Cc1ccc(-c2cc(C(F)(F)F)nn2-c2ccc(S(N)(=O)=O)cc2)cc1 [CELECOXIB]; experiment: as above; settings: exposure time: 5 days; dose range 0.5-1000 nM
# Summary of the method: as §1
# CAMPTOTHECIN = compound: CC[C@@]1(O)C(=O)OCc2c1cc1n(c2=O)Cc2cc3ccccc3nc2-1 [CAMPTOTHECIN]; experiment: as above; settings: exposure time: 5 days; dose range 0.5-1000 nM
# Summary of the method: as §1
# YM155 = compound: COCC[n+]1c2c(n(Cc3cnccn3)c1C)C(=O)c1ccccc1C2=O [YM155]; experiment: as above; settings: exposure time: 5 days; dose range 0.5-1000 nM
# Summary of the method: as §1
# PACLITAXEL = compound: CC(=O)O[C@H]1C(=O)[C@@]2(C)[C@H]([C@H](OC(=O)c3ccccc3)[C@]3(O)C[C@H](OC(=O)[C@H](O)[C@@H](NC(=O)c4ccccc4)c4ccccc4)C(C)=C1C3(C)C)[C@]1(OC(C)=O)CO[C@@H]1C[C@@H]2O [PACLITAXEL]; experiment: as above; settings: exposure time: 5 days; dose range 0.5-1000 nM
# Summary of the method: as §1
# [3] = compound: CC(=O)c1c(C)c2cnc(Nc3ccc(N4CCNCC4)cn3)nc2n(C2CCCC2)c1=O; experiment: as above; settings: exposure time: 5 days; dose range 0.5-1000 nM
# Summary of the method: as §1
# GEFITINIB = compound: COc1cc2ncnc(Nc3ccc(F)c(Cl)c3)c2cc1OCCCN1CCOCC1 [GEFITINIB]; experiment: as above; settings: exposure time: 5 days; dose range 0.5-1000 nM
# Summary of the method: as §1
# [4] = compound: CC(=O)NCC(=O)N1[C@@H]2CC[C@H]1c1ccc(Nc3ncc(C(F)(F)F)c(NC4CCC4)n3)cc12; experiment: as above; settings: exposure time: 5 days; dose range 0.5-1000 nM
# Summary of the method: as §1
# OSI-906 = compound: C[C@]1(O)C[C@@H](c2nc(-c3ccc4ccc(-c5ccccc5)nc4c3)c3c(N)nccn32)C1 [OSI-906]; experiment: as above; settings: exposure time: 5 days; dose range 0.5-1000 nM
# Summary of the method: as §1
Test System,surviving fraction (CARBOPLATIN [1]; 0.5 nM),surviving fraction (CARBOPLATIN [1]; 1 nM),surviving fraction (CARBOPLATIN [1]; 5 nM),surviving fraction (CARBOPLATIN [1]; 10 nM),surviving fraction (CARBOPLATIN [1]; 50 nM),surviving fraction (CARBOPLATIN [1]; 100 nM),surviving fraction (CARBOPLATIN [1]; 500 nM),surviving fraction (CARBOPLATIN [1]; 1000 nM),area under dose-response curve (CARBOPLATIN [2]),area under dose-response curve (CELECOXIB),area under dose-response curve (CAMPTOTHECIN),area under dose-response curve (YM155),area under dose-response curve (PACLITAXEL),area under dose-response curve [3],area under dose-response curve (GEFITINIB),area under dose-response curve [4],area under dose-response curve (OSI-906)
SG27 HEADNECK,1.13 ± 0.014,1.05 ± 0.017,1.12 ± 0.1,1.04 ± 0.038,1.18 ± 0.12,1.02 ± 0.13,1.14 ± 0.27,1.03 ± 0.11,3.6,3.88,2.66,1.43,3.02,3.52,3.65,3.14,–
SKBR3 BREAST,1.01 ± 0.098,1.06 ± 0.1,1.06 ± 0.11,0.987 ± 0.2,1.08 ± 0.049,1.04 ± 0.073,1.07 ± 0.073,1.03 ± 0.14,3.44,3.44,1.42,1.36,0.673,3.09,2.78,–,2.71
MDAMB436 BREAST,0.923 ± 0.041,0.92 ± 0.019,0.998 ± 0.15,0.924 ± 0.11,1.09 ± 0.21,0.906 ± 0.078,1.02 ± 0.033,0.924 ± 0.088,3.18,3.4,1.06,1.42,1.01,3.02,3.12,2.63,2.93
MDAMB134 BREAST,0.906 ± 0.03,0.837 ± 0.13,0.856 ± 0.18,0.837 ± 0.033,1.01 ± 0.11,0.969 ± 0.24,1.05 ± 0.033,0.8405 ± 0.0021,3.15,3.59,2.11,2.43,2.33,3.84,3.62,3.57,2.32
OS25HAL BONE,1.09 ± 0.045,1.03 ± 0.019,0.994 ± 0.034,1.03 ± 0.019,1.18 ± 0.025,1.17 ± 0.053,1.06 ± 0.04,1.14 ± 0.029,3.56,3.54,0.945,0.935,1.01,3.42,3.55,2.55,2.57
HCC1954 BREAST,1.36 ± 0.11,1.02 ± 0.072,1.4 ± 0.31,1.52 ± 0.31,1.05 ± 0.15,0.954 ± 0.013,1.07 ± 0.062,0.836 ± 0.12,3.62,3.51,0.947,1.4,0.63,3.1,2.73,3.09,1.26
MCF7 BREAST,0.942 ± 0.053,0.867 ± 0.048,0.995 ± 0.049,0.898 ± 0.042,0.968 ± 0.05,0.949 ± 0.068,0.984 ± 0.092,0.892 ± 0.018,3.08,3.11,1.55,1.18,1.43,3.03,3.14,2.53,2.69
SCC90 HEADNECK,1.02 ± 0.023,1.04 ± 0.034,1.12 ± 0.18,1.11 ± 0.034,1.2 ± 0.07,1.15 ± 0.012,1.14 ± 0.098,1.16 ± 0.12,3.68,3.43,1.77,2.17,1.1,3.7,2.63,2.52,3.1
MHM BONE,1.01 ± 0.027,1.02 ± 0.025,1.08 ± 0.044,1.06 ± 0.058,1.09 ± 0.014,1.07 ± 0.028,1.02 ± 0.04,1.035 ± 0.0078,3.46,3.42,2.08,1.94,1.43,3.35,3.37,3.12,3.03
SUM149.B1*.S BREAST,1.15 ± 0.096,1.11 ± 0.02,1.12 ± 0.07,1.07 ± 0.025,1.17 ± 0.024,1.2 ± 0.029,1.19 ± 0.052,1.13 ± 0.025,3.85,3.73,–,1.66,1.21,3.76,3.6,3.06,2.99
MDAMB468 BREAST,0.973 ± 0.031,0.96 ± 0.067,1.07 ± 0.032,0.991 ± 0.046,1.1 ± 0.1,1.02 ± 0.019,1.08 ± 0.063,0.975 ± 0.072,3.37,3.83,1.41,0.87,0.701,3.48,3.08,2.44,3.08
MDAMB361 BREAST,0.791 ± 0.041,0.821 ± 0.11,0.808 ± 0.043,0.762 ± 0.029,0.873 ± 0.062,0.754 ± 0.1,0.798 ± 0.046,0.785 ± 0.028,2.64,2.93,2.14,1.61,2.36,2.85,2.9,3.12,2.51
JIMT1 BREAST,0.97 ± 0.037,0.949 ± 0.027,0.999 ± 0.014,0.969 ± 0.015,1.09 ± 0.036,0.949 ± 0.06,1.03 ± 0.031,0.95 ± 0.07,3.31,3.51,1.8,1.39,0.48,3.35,3.29,2.96,3.15
OSHN BONE,1.091 ± 0.0051,1.06 ± 0.022,1.09 ± 0.035,1.05 ± 0.044,1.141 ± 0.0049,1.13 ± 0.015,1.15 ± 0.014,1.113 ± 0.011,3.65,3.7,0.918,0.946,0.555,3.62,3.72,2.43,2.89
HELA CERVIX,1.07 ± 0.02,1.03 ± 0.042,1.03 ± 0.034,1.01 ± 0.02,1.05 ± 0.053,1.14 ± 0.088,1.15 ± 0.055,1.09 ± 0.045,3.53,3.64,1.99,1.07,0.718,3.5,3.66,2.21,3.27
HCC38 BREAST,1.07 ± 0.18,0.841 ± 0.19,1.34 ± 0.44,1.15 ± 0.15,0.944 ± 0.04,0.919 ± 0.13,0.962 ± 0.086,1 ± 0.12,3.4,4.1,1.16,1.05,0.609,3.95,3.99,2.71,3.25
